Consider 24 compounds from US12692274B2, “Tetrahydroisoquinoline derivatives for the treatment of red blood disorders and inflammatory diseases” (Sanofi, priority 2020, dated 2026).

“And” between values parts separate entries of the source, which are not always exact repeats. Identical values can stand only once.

In assay [1] the test system is NQO1 activation in BEAS-2B cells. In words: BEAS-2B cellular MTT assay of NQO1 activation, 0% HSA. The format is cell-based. In short, it runs like this: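 BEAS-2B cells grown in BEBM with BEGM SingleQuots (no GA-1000), kept below 70% confluence, seeded on collagen plates at a density giving 95-100% confluence after 48 h. Plates seeded in medium without HSA (0% HSA condition).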
(In general: Tetrazolium assays rely on reduction of a dye to a coloured formazan, in cell work by metabolically active cells.)

In assay [2] the target is HIS-Keap1 full length / Biotin-Nrf2 (16-mer) (Homo sapiens, UniProt Q14145). In words: biochemical.
Sequence of HIS-Keap1 full length / Biotin-Nrf2 (16-mer) (Q14145 whole entry): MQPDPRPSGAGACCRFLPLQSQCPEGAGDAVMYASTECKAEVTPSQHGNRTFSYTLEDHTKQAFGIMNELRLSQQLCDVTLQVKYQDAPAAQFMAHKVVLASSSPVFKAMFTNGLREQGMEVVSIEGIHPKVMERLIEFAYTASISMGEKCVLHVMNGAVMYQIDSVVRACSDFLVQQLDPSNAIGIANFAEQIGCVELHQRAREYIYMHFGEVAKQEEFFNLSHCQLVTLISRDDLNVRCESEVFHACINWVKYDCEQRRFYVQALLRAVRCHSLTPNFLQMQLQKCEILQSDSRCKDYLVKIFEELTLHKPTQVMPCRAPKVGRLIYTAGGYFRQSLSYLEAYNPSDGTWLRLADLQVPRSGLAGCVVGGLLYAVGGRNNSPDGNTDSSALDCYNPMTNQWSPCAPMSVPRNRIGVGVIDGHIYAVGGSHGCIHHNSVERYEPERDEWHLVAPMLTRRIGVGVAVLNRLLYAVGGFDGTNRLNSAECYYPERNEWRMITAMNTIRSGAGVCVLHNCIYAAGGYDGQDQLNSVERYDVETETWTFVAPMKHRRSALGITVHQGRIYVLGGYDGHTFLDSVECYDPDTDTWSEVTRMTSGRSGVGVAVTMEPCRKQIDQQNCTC
The test system of assay [3] is NQO1 activation in BEAS-2B cells. Description: BEAS-2B cellular MTT assay of NQO1 activation, 0.3% HSA. It is filed as cell-based. In short, it runs like this: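 BEAS-2B cells (<70% confluent in culture, BEBM/SingleQuots without GA-1000) seeded in collagen plates with 0.3% or 0% HSA, reaching 95-100% confluency after 48 h at 37 °C, 5% CO2; MTT read-out.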
Where [4] appears, read: Homo sapiens, serum free, read-out: BEAS EC50 (nM) serum free.
[5] abbreviates: serum free, read-out: BEAS EC50 (nM) serum free.
Setting [6] is: Homo sapiens, BEAS+, read-out: BEAS+ EC50.
Setting [7] is: Homo sapiens, Serum Free W, read-out: BEAS EC50 (nM) Serum Free W.
Where [8] appears, read: Serum Free W, read-out: BEAS EC50 (nM) Serum Free W.
The mark [9] stands for this setting: BEAS+ W, read-out: BEAS+ W EC50.
Setting [10] is: Homo sapiens, BEAS+ W, read-out: BEAS+ W EC50.

With `O=C(O)CC1c2ccc3c(c2)CN(CC3)C(=O)c2ccc(cn2)CCCCCCn2nnc3c(Cl)c1ccc32` (centres unmarked) [Compound 225], the concentration for a half-maximal effect (EC50) – broadly, the concentration that produces a half-maximal response – was 169 nM in assay [1] (setting [4]); 175 nM in assay [1] (setting [5]); 339 nM in assay [3] (BEAS+, read-out: BEAS+ EC50); 303 nM in assay [3] (setting [6]). Also, the IC50 (usually the concentration that inhibits the measured activity by half) in assay [2] was 2.5 nM and 2.4 nM.

With `Cc1cc2ncc1[C@H]([C@H](C)C(=O)O)c1ccc3c(c1)CN(CC3)C(=O)c1ccc(cc1)C/C=C/CCO2` [Compound 62], the EC50 in assay [1] (setting [7]) was 0.2 nM; in assay [1] (setting [8]), 0.1 nM; in assay [3] (setting [9]), 0.4 nM and 0.3 nM; in assay [3] (setting [10]), less than 0.5 nM. In addition, in assay [2], the 50% inhibitory concentration (IC50) was 0.4 nM and 0.8 nM.

As for `Cc1c2ccc3c1nnn3CCCCCOc1ccc(c(F)c1)C(=O)N1CCc3ccc(cc3C1)[C@@H]2CC(=O)O` [Compound 254], the EC50 is 16 nM in assay [1] (setting [4]); 17.2 nM in assay [1] (setting [5]); 22.6 nM in assay [3] (BEAS+, read-out: BEAS+ EC50); 16.4 nM in assay [3] (setting [6]). This compound also showed an IC50 in assay [2] of 1.8 nM.

Take `C[C@@H](C(=O)O)[C@@H]1c2ccc(nc2)OCC/C=C/Cc2ccc(cc2)C(=O)N2CCc3ccc1cc3C2` [Compound 46]: the EC50 in assay [1] (setting [7]) came to 0.7 nM; in assay [1] (setting [8]), 0.5 nM; in assay [3] (setting [9]), 2 nM; in assay [3] (setting [10]), 3.3 nM. The IC50 in assay [2] was 0.4 nM and 0.3 nM.

For the compound `Cc1c2ccc3c1nnn3CCCCCCc1ccc(cc1OC(F)(F)F)C(=O)N1CCc3ccc(cc3C1)[C@@H]2CC(=O)O` [Compound 42], the half-maximal effective concentration (EC50) in assay [1] (setting [7]) was 8.7 nM; in assay [3] (setting [9]), 54.1 nM; in assay [3] (setting [10]), 35 nM. For the same compound, the IC50 in assay [2] is 0.9 nM and 1.4 nM.

For `Cc1cc2ncc1[C@@H](CC(=O)O)c1ccc3c(c1)CN(CC3)C(=O)c1ccc(cc1)CCOCCO2` [Compound 351], the EC50 was greater than 1000 nM in assay [1] (setting [7]); 1780 nM in assay [1] (setting [8]); 2880 nM and 2800 nM in assay [3] (setting [9]); 3740 nM in assay [3] (setting [10]). Further, the concentration for half-maximal inhibition (IC50) in assay [2] is 649 nM and 619 nM and 401 nM and 416 nM.

Turning to `Cc1cc2ncc1[C@@H]([C@H](C)C(=O)O)c1ccc3c(c1)CN(CC3)C(=O)c1ccc(cc1)C/C=C/CCO2` [Compound 58], the EC50 was determined as 9.7 nM in assay [1] (setting [7]), 8.8 nM in assay [1] (setting [8]), 35.1 nM in assay [3] (setting [9]) and 26.5 nM in assay [3] (setting [10]). The IC50 in assay [2] was 10.9 nM and 8.4 nM.

On to `Cc1c2n(C)c3ccc(cc13)C/C=C\CCCn1nnc3c(C)c(cnc31)[C@H](CC(=O)O)c1ccc3c(c1)CN(CC3)C2=O` [Compound 43], for which the EC50 in assay [1] (setting [7]) is 4.4 nM; in assay [1] (setting [8]), 4.3 nM and 3.7 nM; in assay [3] (setting [9]) it was 43.5 nM and 37 nM; in assay [3] (setting [10]) it was 42.9 nM. This compound also had an IC50 in assay [2] of 0.2 nM.

Turning to `Cc1c2cnc3c1nnn3CCCCCCc1ccc(cc1)C(=O)N1CCc3ccc(cc3C1)C2CC(=O)O` (centres unmarked) [Compound 216], the EC50 is 1.8 nM in assay [1] (setting [4]); 2.5 nM in assay [1] (setting [5]); 28.2 nM in assay [3] (BEAS+, read-out: BEAS+ EC50); 35.8 nM in assay [3] (setting [6]). Also, in assay [2], the IC50 was 2.1 nM and 2.3 nM.

In the case of `Cc1cc2ccc1C(=O)N1CCc3ccc(cc3C1)[C@H]([C@H](C)C(=O)O)c1ccc3c(c1)nnn3CCCCCCO2` [Compound 292], the EC50 in assay [1] (setting [4]) was 349 nM; in assay [3] (setting [6]), 637 nM. In addition, the IC50 in assay [2] is 7.7 nM and 5.9 nM.

Consider `Cc1c2ccc3c1nnn3CCCCCCc1ccc3nc(n(C)c3c1)C(=O)N1CCc3ccc(cc3C1)C2CC(=O)O` (centres unmarked) [Compound 192], for which the EC50 in assay [1] (setting [4]) stood at 75.6 nM; in assay [1] (setting [5]), 63.7 nM; in assay [3] (BEAS+, read-out: BEAS+ EC50) it was 124 nM; in assay [3] (setting [6]), 114 nM. Further, the IC50 in assay [2] is 7 nM and 6.8 nM.

As for `O=C(O)CC1c2ccc(nc2)OCCCCOc2cc(F)c(c(F)c2)C(=O)N2CCc3ccc1cc3C2` (centres unmarked) [Compound 210], the EC50 was found to be 482 nM in assay [1] (setting [4]); 475 nM in assay [1] (setting [5]); 845 nM in assay [3] (BEAS+, read-out: BEAS+ EC50); 1020 nM in assay [3] (setting [6]). Also, the IC50 in assay [2] was 3.7 nM and 4 nM.

`Cc1cc2ccc1C(=O)N1CCc3ccc(cc3C1)C(CC(=O)O)c1cnc(nc1)OCCCCO2` (centres unmarked) [Compound 182]: the EC50 is greater than 1000 nM in assay [1] (setting [7]) and greater than 10000 nM in assay [3] (setting [10]). For the same compound, the IC50 in assay [2] is 55.7 nM and 44 nM.

Regarding `Cc1cc2ncc1[C@H]([C@@H](C)C(=O)O)c1ccc3c(c1)CN(CC3)C(=O)c1ccc(cc1)C/C=C/CCO2` [Compound 59], the EC50 in assay [1] (setting [7]) is 1.7 nM; in assay [1] (setting [8]), 1.6 nM; in assay [3] (setting [9]), 4.4 nM; in assay [3] (setting [10]), 5 nM. For the same compound, the IC50 in assay [2] was 8.1 nM and 7.3 nM.

In the case of `Cc1c2ccc3c1nnn3CCCCCc1ccc3c(c1)cc(n3C)C(=O)N1CCc3ccc(cc3C1)[C@@H]2[C@H](C)C(=O)O` (racemic) [Compound 113], the EC50 was 1.6 nM in assay [1] (setting [7]), 1.8 nM in assay [1] (setting [8]), 48.7 nM in assay [3] (setting [9]) and 62.7 nM in assay [3] (setting [10]). For the same compound, the IC50 in assay [2] was 1.1 nM and 0.9 nM.

Take `Cc1cc2ncc1[C@H](CC(=O)O)c1ccc3c(c1)CN(CC3)C(=O)c1ccc(cc1)CCOCCO2` [Compound 350]: the EC50 in assay [1] (setting [7]) turned out to be 161 nM; in assay [1] (setting [8]) it was 145 nM; in assay [3] (setting [9]), 426 nM; in assay [3] (setting [10]), 276 nM. Besides, the IC50 in assay [2] is 11.5 nM and 10.1 nM and 9.8 nM and 10.2 nM.

Take `Cc1c2ccc3c1nnn3CCCCCc1cnc3c(c1)cc(n3C)C(=O)N1CCc3ccc(cc3C1)[C@H]2CC(=O)O` [Compound 111]: the EC50 in assay [1] (setting [7]) worked out at 19 nM; in assay [1] (setting [8]) it was 19.5 nM; in assay [3] (setting [9]), 101 nM; in assay [3] (setting [10]), 122 nM. The IC50 in assay [2] is 0.4 nM and 0.2 nM.

`Cc1c2ccc3c1nnn3CC/C=C/Cc1ccc(c(F)c1)C(=O)N1CCc3ccc(cc3C1)C2C(C)C(=O)O` (centres unmarked) [Compound 376]: the EC50 in assay [1] (setting [7]) was 2.1 nM; in assay [1] (setting [8]), 2.3 nM; in assay [3] (setting [9]), 4.5 nM and 5.5 nM; in assay [3] (setting [10]), 3.9 nM. Also, in assay [2], the IC50 was 1.3 nM and 1.4 nM.

As to `COc1cc2ccc1CCCCCCn1nnc3c(C)c(cnc31)[C@H](CC(=O)O)c1ccc3c(c1)CN(CC3)C2=O` [Compound 95], the EC50 is 53.1 nM in assay [1] (setting [7]), 64.8 nM in assay [1] (setting [8]), 124 nM in assay [3] (setting [9]) and 92 nM in assay [3] (setting [10]). In addition, the IC50 in assay [2] is 1.8 nM and 1.9 nM.

For the compound `Cc1cc2ncc1[C@H](CC(=O)O)c1ccc3c(c1)CN(CC3)C(=O)c1c(F)cc(cc1F)CCCCCO2` [Compound 120], the EC50 in assay [1] (setting [7]) was 1.4 nM; in assay [3] (setting [9]) it was 7.6 nM and 4.6 nM and 6.3 nM; in assay [3] (setting [10]) it was 7.9 nM. The IC50 in assay [2] was 0.3 nM and 0.4 nM.

Take `CC(C)(C(=O)O)C1c2ccc3c(c2)CN(CC3)C(=O)c2ccc(cc2F)OCCCCCCn2nnc3cc1ccc32` (centres unmarked) [Compound 288]: the results for the concentration for a half-maximal effect (EC50) in assay [1] (setting [4]) and in assay [3] (setting [6]) were 2.7 nM and 34.3 nM, respectively. Also, in assay [2], the IC50 is 1.8 nM and 2.3 nM.

Take `Cc1c2ccc3c1nnn3CCCCCCOc1ccc(nc1)C(=O)N1CCc3ccc(cc3C1)C2CC(=O)O` (centres unmarked) [Compound 227]: the EC50 is 517 nM in assay [1] (setting [4]); 568 nM in assay [1] (setting [5]); 932 nM in assay [3] (BEAS+, read-out: BEAS+ EC50); 1130 nM in assay [3] (setting [6]). Besides, in assay [2], the IC50 was found to be 2.1 nM.

Regarding `Cc1c2ccc3c1nnn3CCCCCc1ccc(cc1)C(=O)N1CCc3ccc(cc3C1)[C@@H]2CC(=O)O` [Compound 285], the EC50 in assay [1] (setting [4]) came out at 4.7 nM; in assay [3] (setting [6]) it was 9.8 nM. In assay [2], the IC50 was 0.3 nM and 0.5 nM.

Consider `COc1cc2ccc1C(=O)N1CCc3ccc(cc3C1)C(CC(=O)O)c1ccc3c(nnn3CCCCC2)c1C` (centres unmarked) [Compound 191], for which the EC50 in assay [1] (setting [4]) was 11.4 nM; in assay [1] (setting [5]), 18 nM; in assay [3] (BEAS+, read-out: BEAS+ EC50), 18 nM; in assay [3] (setting [6]), 20.5 nM. The IC50 in assay [2] was 19.5 nM and 20.4 nM.
